These results are taken from PubChem BioAssay (NCI).

“And” between values parts separate entries of the source, which are not always exact repeats. Identical values can stand only once.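 1) Cells in 96-well plates. 2) Compound, 48 h, 5 concentrations. 3) Linear interpolation between surrounding doses. 4) Unreached endpoint = highest concentration. GI50 is the concentration that inhibits growth by half. The concentration for full growth arrest is given as TGI.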

Among the test systems are NCI-H226 lung; EKVX NSCLC; SK-MEL-2 melanoma; A498 renal; UO-31 renal; RXF 393 renal; SF-295 CNS; 786-0 renal; SR leukemia; HL-60(TB) leukemia.
What all share (assay): inhibition of tumour cell growth, NCI panel, 48 h

For the compound `Cc1ncc(C(=O)Nc2ccc(CN3CCN(C)CC3)c(C(F)(F)F)c2)cc1C#Cc1cnc(N)c2ncccc12`, the GI50 in the assay with NCI-H226 lung was 0.293 µM; with EKVX NSCLC it was 1.27 µM; in the assay with SK-MEL-2 melanoma, 0.0783 µM; in the assay on A498 renal, 0.228 µM; in the assay with UO-31 renal, 0.0596 µM; in the assay with RXF 393 renal, 0.0984 µM. Also, the GI50 in the assay on SF-295 CNS is 1.26 µM; in the assay on 786-0 renal, 0.508 µM; in the assay with SR leukemia, 0.472 µM; in the assay on HL-60(TB) leukemia, 0.164 µM. The TGI with NCI-H226 lung was 24.3 µM; in the assay with EKVX NSCLC, 3.62 µM; with SK-MEL-2 melanoma, 0.747 µM; in the assay on A498 renal it was 2.38 µM; in the assay on UO-31 renal, 0.775 µM; in the assay on RXF 393 renal, 1.49 µM. Moreover, the results for the TGI with SF-295 CNS, in the assay on 786-0 renal and in the assay with HL-60(TB) leukemia were 10.6 µM, 2.88 µM and 7.67 µM, respectively.

Take `CN1CCN(Cc2ccc(NC(=O)c3nc4ccc5[nH]ncc5c4c4c3CCC4)cc2C(F)(F)F)CC1`: the GI50 with NCI-H226 lung was 2.23 µM; in the assay with EKVX NSCLC, 1.26 µM; in the assay with SK-MEL-2 melanoma it was 1.16 µM; in the assay with A498 renal, 6.62 µM; with UO-31 renal, 0.728 µM; in the assay with RXF 393 renal, 1.19 µM. Also, the GI50 in the assay on SF-295 CNS is 6.97 µM; in the assay on 786-0 renal, 0.859 µM; in the assay on SR leukemia, 1.1 µM; in the assay with HL-60(TB) leukemia it was 1.06 µM. Besides, the TGI amounted to 11.3 µM with NCI-H226 lung; 4.84 µM in the assay with EKVX NSCLC; 2.49 µM in the assay on SK-MEL-2 melanoma; 13.4 µM in the assay on A498 renal; 1.38 µM in the assay on UO-31 renal; 4.37 µM in the assay on RXF 393 renal. The TGI was found to be 13.8 µM in the assay with SF-295 CNS, 1.56 µM with 786-0 renal, 2.68 µM in the assay with SR leukemia and 2.28 µM in the assay on HL-60(TB) leukemia.

Turning to `CC(=O)OC1C/C(C)=C/CCC(C)/C=C/C2(C)CCC(C(C)(C)O)C12` (stereo not drawn), the TGI with NCI-H226 lung is over 100 µM; in the assay on EKVX NSCLC, over 100 µM; in the assay on SK-MEL-2 melanoma, over 100 µM; in the assay with A498 renal it was over 100 µM; in the assay on UO-31 renal, over 100 µM; in the assay on RXF 393 renal it was 53.3 µM. The TGI with SF-295 CNS was over 100 µM; in the assay on 786-0 renal it was over 100 µM; with SR leukemia, 47.2 µM; in the assay on HL-60(TB) leukemia, 55.5 µM.

For `COc1cc2nc(N3CCCC3)nc(Nc3ccccc3)c2cc1OC`, the GI50 in the assay with NCI-H226 lung was 1.97 µM; in the assay with EKVX NSCLC it was 1.88 µM; with SK-MEL-2 melanoma, 2.09 µM; in the assay on A498 renal it was 1.02 µM; in the assay on UO-31 renal, 1.39 µM; in the assay with RXF 393 renal it was 1.4 µM. The GI50 in the assay on SF-295 CNS was 1.8 µM; in the assay on 786-0 renal, 1.71 µM; with SR leukemia, 0.234 µM; in the assay on HL-60(TB) leukemia, 0.635 µM. For the same compound, the TGI with NCI-H226 lung stood at 4.12 µM; in the assay on EKVX NSCLC it was 3.53 µM; with SK-MEL-2 melanoma, 4.16 µM; in the assay with A498 renal, 2.28 µM; in the assay on UO-31 renal, 2.84 µM; with RXF 393 renal, 2.78 µM. The TGI amounted to 3.27 µM in the assay with SF-295 CNS, 3.53 µM in the assay with 786-0 renal, 1.26 µM in the assay with SR leukemia and 2.42 µM in the assay with HL-60(TB) leukemia.

For `CC1(O)CC2(O)C=CC3=C(C(=O)c4cccc(O)c4C3=O)C2(O)C(=O)C1O` (stereo not drawn), the TGI in the assay with NCI-H226 lung is 17.6 µM; in the assay with EKVX NSCLC, 5.99 µM; in the assay on SK-MEL-2 melanoma, 9.07 µM; in the assay with A498 renal it was 14.9 µM; in the assay with UO-31 renal it was 4 µM; with RXF 393 renal, 2.13 µM. Further, the TGI stood at 26.7 µM with SF-295 CNS, 3.84 µM in the assay with 786-0 renal, 18.1 µM in the assay with SR leukemia and 2.17 µM with HL-60(TB) leukemia.

Turning to `Cc1ccc(N=Nc2c(N)nn(-c3ccccc3)c2N)cc1`, the GI50 is 59.4 µM with NCI-H226 lung; 3.72 µM in the assay on EKVX NSCLC; 0.464 µM in the assay with SK-MEL-2 melanoma; 1.95 µM with A498 renal; 7.97 µM with UO-31 renal; 2.9 µM with RXF 393 renal. Also, the GI50 in the assay on SF-295 CNS is 1.83 µM; with 786-0 renal, 0.755 µM; in the assay with SR leukemia, 0.378 µM; in the assay with HL-60(TB) leukemia, 0.638 µM. Moreover, the TGI with NCI-H226 lung is over 100 µM; with EKVX NSCLC, over 100 µM; with A498 renal, over 28.7 µM; in the assay with UO-31 renal it was over 100 µM; in the assay on RXF 393 renal, over 100 µM; in the assay with SF-295 CNS it was over 57.1 µM. The results for the TGI in the assay on SR leukemia and in the assay on HL-60(TB) leukemia were over 100 µM and over 21.6 µM, respectively.

On to `CC[N+]1(C)CCC(O)(c2ccccc2)C(C(=O)c2ccccc2)C1` (stereo not drawn), for which the TGI came out at 38.8 µM with NCI-H226 lung; 43.4 µM with EKVX NSCLC; 37.7 µM in the assay with SK-MEL-2 melanoma; 30.7 µM in the assay on A498 renal; 33.6 µM in the assay with UO-31 renal; 26.6 µM in the assay with RXF 393 renal. For the same compound, the TGI in the assay with SF-295 CNS was 35.9 µM; in the assay with 786-0 renal, 18.8 µM; in the assay with SR leukemia, 15.6 µM; in the assay with HL-60(TB) leukemia, 15.9 µM.

In the case of `C=CC(=O)N1CCC([C@@H]2CCNc3c(C(N)=O)c(-c4ccc(Oc5ccccc5)cc4)nn32)CC1`, the GI50 in the assay on NCI-H226 lung is 11.9 µM; with EKVX NSCLC it was 2.35 µM; in the assay with SK-MEL-2 melanoma it was 18.2 µM; in the assay on A498 renal, 1.67 µM; in the assay on UO-31 renal, 2.96 µM; in the assay with RXF 393 renal, 9.05 µM. Also, the GI50 in the assay with SF-295 CNS is 22.4 µM; with 786-0 renal it was 12.9 µM; in the assay with SR leukemia, 23.9 µM; in the assay with HL-60(TB) leukemia, 15.5 µM. For the same compound, the TGI was 42.5 µM in the assay with NCI-H226 lung; over 100 µM with EKVX NSCLC; 40 µM in the assay on SK-MEL-2 melanoma; 9.25 µM in the assay with A498 renal; over 66.4 µM with UO-31 renal; 25.5 µM in the assay with RXF 393 renal. Moreover, the TGI was over 76.6 µM in the assay on SF-295 CNS, 53.1 µM in the assay on 786-0 renal, over 100 µM in the assay on SR leukemia and 49.7 µM with HL-60(TB) leukemia.

`Cc1ccc2c(c1)SC(c1cc3c(cc1Br)OCO3)S2` (stereo not drawn): the TGI in the assay on NCI-H226 lung, in the assay with EKVX NSCLC, with SK-MEL-2 melanoma, in the assay on A498 renal, with UO-31 renal and in the assay with RXF 393 renal was over 31.6 µM in each case. Moreover, the TGI in the assay on SF-295 CNS, in the assay with 786-0 renal, in the assay with SR leukemia and in the assay with HL-60(TB) leukemia was over 31.6 µM throughout.

Regarding `O=C(O)CCCSc1nc2ccccc2s1`, the TGI in the assay with NCI-H226 lung, with EKVX NSCLC, in the assay on SK-MEL-2 melanoma, in the assay on A498 renal, in the assay with UO-31 renal and with RXF 393 renal was over 100 µM in each case. For the same compound, the TGI in the assay with SF-295 CNS, in the assay on 786-0 renal, in the assay on SR leukemia and with HL-60(TB) leukemia was over 100 µM each time.

`COc1cc([C@@H]2c3cc4c(cc3[C@@H](NCc3ccccc3)C3COC(=O)[C@@H]32)OCO4)cc(OC)c1O` (stereo partly drawn): the TGI was found to be 11.2 µM in the assay with NCI-H226 lung; 38.1 µM in the assay on EKVX NSCLC; 52.2 µM in the assay on SK-MEL-2 melanoma; 19.4 µM with A498 renal; 17.6 µM in the assay with UO-31 renal; 72.2 µM in the assay on RXF 393 renal. Also, the TGI with SF-295 CNS was 26.5 µM; with 786-0 renal, 12.5 µM; with SR leukemia, 4.84 µM; with HL-60(TB) leukemia it was 10.1 µM.

Turning to `CCOC(=O)Cn1c(C)c(/C=N/NC(=O)c2cc3c(ccc4ccccc43)o2)c2ccccc21`, the GI50 in the assay on NCI-H226 lung is 0.801 µM; in the assay with EKVX NSCLC, 0.662 µM; in the assay on SK-MEL-2 melanoma it was 0.77 µM; in the assay with A498 renal, 0.134 µM; in the assay on UO-31 renal, 0.753 µM; in the assay with RXF 393 renal, 0.319 µM. Besides, the GI50 is 0.323 µM in the assay on SF-295 CNS, 0.491 µM with 786-0 renal, 0.153 µM in the assay with SR leukemia and 0.345 µM in the assay with HL-60(TB) leukemia. The TGI with NCI-H226 lung is 5.39 µM; in the assay on EKVX NSCLC it was 42.5 µM; with SK-MEL-2 melanoma it was 7.05 µM; in the assay with A498 renal, 1.04 µM; in the assay on UO-31 renal, 2.61 µM; in the assay with RXF 393 renal it was 1.08 µM. For the same compound, the TGI in the assay on SF-295 CNS is 1.65 µM; in the assay on 786-0 renal, 2.24 µM; with SR leukemia, over 21.8 µM; with HL-60(TB) leukemia, 7.83 µM.

As for `Nc1ncnc2c(C3OC(CO)C(O)C3O)scc12` (stereo not drawn), the TGI with NCI-H226 lung is 0.731 µM; with EKVX NSCLC, 4.29 µM; in the assay with SK-MEL-2 melanoma it was 2.14 µM; with A498 renal, 0.324 µM and 2.03 µM; in the assay on UO-31 renal, 4.56 µM; in the assay with RXF 393 renal it was 1.39 µM. Further, the TGI was 2.45 µM and 3.66 µM in the assay with SF-295 CNS; 4.5 µM and 3.08 µM with 786-0 renal; 2.49 µM in the assay on SR leukemia; 0.00946 µM with HL-60(TB) leukemia. The GI50 was 0.269 µM in the assay with EKVX NSCLC; 0.228 µM in the assay with SK-MEL-2 melanoma; 0.0518 µM in the assay on A498 renal; 0.591 µM with SF-295 CNS; 0.168 µM in the assay on 786-0 renal; 0.0621 µM in the assay on SR leukemia.
